Data on 44 compounds can be found in paper PMC10890569, “The Sequence Characteristics and Binding Properties of the Odorant-Binding Protein SvelOBP1 from Sympiezomias velatus (Coleoptera: Curculionidae) to Jujube Volatiles” (Life, 2024).

The target in experiment [1] is SvelOBP1. Kind of experiment: Competitive fluorescence binding assay (displacement of 1-NPN). Also noted: species or system Sympiezomias velatus. To be noted: for IC50: 2 μM recombinant SvelOBP1/1-NPN, ligand 0-16 μM, 20 mM Tris-HCl pH7.4, three replicates, read-out: IC50 (ligand concentration replacing 50% of initial fluorescence of SvelOBP1/1-NPN mixture). As to the method:
(§1) The fluorescent probe 1-N-phenyl-naphthylamine (1-NPN) was used to evaluate the binding affinity of SvelOBP1 protein to different ligands. Forty-three host plant volatiles from leaves of jujube trees were selected as putative ligands (Table 2). Fluorescence-based ligand binding assays were performed on an F-2700 fluorescence spectrophotometer (Hitachi, Tokyo, Japan). The excitation wavelength was 337 nm, and the emission spectra were in the range from 370 to 550 nm. First, all tested ligands and 1-NPN were dissolved in chromatographic methanol and diluted to 1 mM as the stock solution. Second, the recombinant protein was diluted to 2 μM with 20 mM Tris-HCl (pH7.4), and 2 mL of the protein solution was placed in a 1 cm light path quartz cuvette.
(§2) The dissociation constants K1-NPN of 1-NPN to SvelOBP1 were calculated by GraphPad Prism 8.0 software with non-linear regression for the one site-specific binding method. The inhibitory constant (Ki) of each ligand binding to SvelOBP1 was calculated with Equation (1). IC50 is the ligand concentration replacing 50% of the initial fluorescence intensity of the SvelOBP1/1-NPN mixture. [1-NPN] represents the free concentration of 1-NPN. […] (1) Ki=IC50/(1+[1−NPN]/K1−NPN)

Experiment [2] has as its target SvelOBP1. Kind of experiment: Binding of fluorescent probe 1-NPN to SvelOBP1 (titration, Scatchard plot). Also noted: species or system Sympiezomias velatus. To be noted: 2 μM SvelOBP1 titrated with 1-NPN 0-16 μM, pH7.4; read-out: dissociation constant (Kd) of 1-NPN. As to the method: as §1, §2
A further experiment concerns the target SvelOBP15. Also on record: method as in PMID 35711318. The settings on record: cited from earlier work.
The mark [3] stands for this setting: Ki=IC50/(1+[1-NPN]/K1-NPN), 2 μM SvelOBP1/1-NPN, pH7.4, mean ± SEM, read-out: Ki (inhibitory constant).
The mark [4] stands for this setting: class in words by Ki, read-out: binding affinity class.

The structures appear in SMILES notation. Read-outs that look alike come from different tables or passages of the source.

Broadly, the Kd is the constant that tells how readily two partners part at equilibrium.

As to `C/C=C(\C)C(=O)OCC` [Ethyl (E)-2-methylbut-2-enoate], the IC50 at SvelOBP1 [1] (mean ± SEM) is over 16 µM. On to `C=CCc1ccc(O)c(OC)c1` [2-methoxy-4-prop-2-enylphenol], for which the IC50 on SvelOBP1 [1] (mean ± SEM) is over 16 µM. The same measure, in the same setting: next, `CC(C)=CCC/C(C)=C/C(=O)O` [(2E)-3,7-dimethylocta-2,6-dienoic acid]: over 16 µM.

Consider `CCc1ccc(C(C)=O)cc1` [1-(4-ethylphenyl)ethanone], for which the IC50 on SvelOBP1 [1] (mean ± SEM) was found to be 13.1 ± 0.16 µM. Further, the results for the Ki at SvelOBP1 [1] (setting [3]) and on SvelOBP1 [1] (setting [4]) were 10.9 ± 0.13 µM and 10 to 16 µM, respectively. On to `CCOC(=O)C(C)CC` (stereo not drawn) [Ethyl 2-methylbutyrate], for which the IC50 at SvelOBP1 [1] (mean ± SEM) stood at 11.28 ± 0.1 µM. At SvelOBP1 [1] (setting [3]), the Ki is 9.37 ± 0.08 µM.

In the case of `CC(C)=Cc1ccccc1` [2-methylprop-1-enylbenzene], the IC50 on SvelOBP1 [1] (mean ± SEM) is over 16 µM. As to `CC/C=C\CCOC(=O)CCC` [[(Z)-hex-3-enyl] butanoate], the IC50 on SvelOBP1 [1] (mean ± SEM) amounted to 15.5 ± 0.9 µM. Also, the Ki on SvelOBP1 [1] (setting [3]) was 12.9 ± 0.75 µM. `CC(C)COC(=O)CCCCC(=O)OCC(C)C` [Bis(2-methylpropyl) hexanedioate]: the IC50 at SvelOBP1 [1] (mean ± SEM) is over 16 µM. The same measure, in the same setting: next, `CC(=O)c1ccc(C)c(C)c1` [1-(3,4-dimethylphenyl)ethanone]: over 16 µM. For `C=CC(C)(O)CC/C=C(\C)CCC=C(C)C` (stereo not drawn) [(6E)-3,7,11-trimethyldodeca-1,6,10-trien-3-ol], the IC50 at SvelOBP1 [1] (mean ± SEM) is over 16 µM.

Take `CCCCOC(C)=O` [Butyl acetate]: on SvelOBP1 [1] (mean ± SEM), the IC50 was found to be 13.2 ± 0.47 µM. For the same compound, the Ki on SvelOBP1 [1] (setting [3]) was determined as 10.9 ± 0.39 µM.

Regarding `CCCCCCCCCCCCCCCC(=O)O` [Hexadecanoic acid], at SvelOBP1 [1] (mean ± SEM), the IC50 is 14.1 ± 0.33 µM. Also, the results for the Ki on SvelOBP1 [1] (setting [3]) and on SvelOBP1 [1] (setting [4]) were 11.7 ± 0.27 µM and 10 to 16 µM, respectively. On to `c1ccc(Nc2cccc3ccccc23)cc1` [1-NPN, 1-N-phenyl-naphthylamine], for which, on SvelOBP1 [2], the Kd was determined as 4.92 ± 0.04 µM.

`CCC/C=C/COC(=O)CCCCC` [[(E)-hex-2-enyl] hexanoate]: at SvelOBP1 [1] (mean ± SEM), the IC50 came to 14.51 ± 0.06 µM. The Ki at SvelOBP1 [1] (setting [3]) turned out to be 12.06 ± 0.05 µM. Taken in the same sequence, the figures for `CCC/C=C/CO` [(E)-hex-2-en-1-ol] were 15.44 ± 0.14 µM and 12.83 ± 0.12 µM. As to `CC(C)=CCC/C(C)=C/CC/C(C)=C/CC/C=C(\C)CC/C=C(\C)CCC=C(C)C` [(6E,10E,14E,18E)-2,6,10,15,19,23-hexamethyltetracosa-2,6,10,14,18,22-hexaene], at SvelOBP1 [1] (mean ± SEM), the IC50 is over 16 µM. Regarding `CCCC(=O)OCC` [Ethyl butyrate], the IC50 at SvelOBP1 [1] (mean ± SEM) stood at 14.2 ± 0.16 µM. Also, on SvelOBP1 [1] (setting [3]), the Ki stood at 11.8 ± 0.13 µM. Consider `CCCCOC(=O)c1ccccc1C(=O)OCCCC` [Dibutyl benzene-1,2-dicarboxylate], for which the Ki at SvelOBP1 [1] (setting [3]) is 6.66 ± 0.03 µM. As to `O=C1CCCC1C1CCCC1` (stereo not drawn) [2-cyclopentylcyclopentan-1-one], the IC50 at SvelOBP1 [1] (mean ± SEM) was over 16 µM. With `CC(C)=CCC/C(C)=C/CC/C(C)=C/CO` [(2E,6E)-3,7,11-trimethyldodeca-2,6,10-trien-1-ol], at SvelOBP1 [1] (mean ± SEM), the IC50 is 14.4 ± 0.17 µM. Further, on SvelOBP1 [1] (setting [3]), the Ki was determined as 11.9 ± 0.14 µM. The matching figures for `CC1=CCC2C(C1)C2(C)C` (stereo not drawn) [3,7,7-trimethylbicyclo [4.1.0]hept-3-ene]: 14.56 ± 0.07 µM and 12.1 ± 0.06 µM. Taken in the same sequence, the figures for `C=CC(O)CCCCC` (stereo not drawn) [Oct-1-en-3-ol] were 15.18 ± 0.13 µM and 12.61 ± 0.11 µM. As for `CCOC(=O)CC(C)C` [Ethyl 3-methylbutanoate], the IC50 at SvelOBP1 [1] (mean ± SEM) was over 16 µM. Turning to `CCCCCCCCCCCC` [Dodecane], at SvelOBP1 [1] (mean ± SEM), the IC50 is over 16 µM. On the same count and under the same terms, next, `CCC/C=C/COC(C)=O` [[(E)-hex-2-en-1-yl] acetate]: over 16 µM.

For the compound `CC/C=C\CCOC(=O)C(C)CC` (stereo not drawn) [[(Z)-hex-3-enyl] 2-methylbutanoate], the IC50 on SvelOBP1 [1] (mean ± SEM) was determined as 13.4 ± 0.2 µM. The Ki on SvelOBP1 [1] (setting [3]) is 11.2 ± 0.16 µM. `C=C(C)C1CC=C(C)CC1` (stereo not drawn) [1-methyl-4-prop-1-en-2-ylcyclohexene]: at SvelOBP1 [1] (mean ± SEM), the IC50 stood at 13.11 ± 0.02 µM. In addition, at SvelOBP1 [1] (setting [3]), the Ki is 10.9 ± 0.01 µM. Turning to `CC(C)=CCC/C(C)=C/CO` [(2E)-3,7-dimethylocta-2,6-dien-1-ol], the IC50 at SvelOBP1 [1] (mean ± SEM) was over 16 µM. With `C=CC(C)=CCC=C(C)C` [3,7-dimethylocta-1,3,6-triene], at SvelOBP1 [1] (mean ± SEM), the IC50 came out at 11.13 ± 0.06 µM. For the same compound, the Ki at SvelOBP1 [1] (setting [3]) stood at 9.25 ± 0.05 µM. In the case of `OCc1ccccc1` [Phenylmethanol], on SvelOBP1 [1] (mean ± SEM), the IC50 was 11.3 ± 0.27 µM. For the same compound, on SvelOBP1 [1] (setting [3]), the Ki turned out to be 9.4 ± 0.23 µM. Take `C=C1C2CCC(C2)C1(C)C` (stereo not drawn) [2,2-dimethyl-3-methylidenebicyclo [2.2.1]heptane]: the IC50 at SvelOBP1 [1] (mean ± SEM) is over 16 µM.

For `C=CC(C)(O)CCC=C(C)C` (stereo not drawn) [3,7-dimethylocta-1,6-dien-3-ol], the IC50 at SvelOBP1 [1] (mean ± SEM) is 13.6 ± 0.16 µM. For the same compound, the Ki at SvelOBP1 [1] (setting [3]) was determined as 11.3 ± 0.13 µM. With `CC1=CCC(C(C)C)C=C1` (stereo not drawn) [2-methyl-5-propan-2-ylcyclohexa-1,3-diene], at SvelOBP1 [1] (mean ± SEM), the IC50 came out at 11.69 ± 0.07 µM. In addition, the Ki at SvelOBP1 [1] (setting [3]) is 9.71 ± 0.06 µM. With `COC(=O)c1ccccc1O` [Methyl 2-hydroxybenzoate], the IC50 at SvelOBP1 [1] (mean ± SEM) is over 16 µM. In the case of `CC/C=C\CCOC(=O)CC(C)C` [[(Z)-hex-3-enyl] 3-methylbutanoate], the IC50 on SvelOBP1 [1] (mean ± SEM) worked out at 14.4 ± 0.16 µM. Besides, the Ki at SvelOBP1 [1] (setting [3]) was 11.9 ± 0.13 µM.

As to `CC/C=C\CCOC(C)=O` [[(Z)-hex-3-enyl] acetate], the IC50 on SvelOBP1 [1] (mean ± SEM) was found to be 14.45 ± 0.11 µM. The Ki at SvelOBP1 [1] (setting [3]) is 12.01 ± 0.09 µM. As for `C=C/C(C)=C/C/C=C(\C)CCC=C(C)C` [(3E,6E)-3,7,11-trimethyldodeca-1,3,6,10-tetraene], the Ki on SvelOBP1 [1] (setting [3]) is 8.73 ± 0.09 µM. `CC/C=C\CCO` [(Z)-hex-3-en-1-ol]: the figures for the Ki at SvelOBP15, at SvelOBP1 [1] (setting [3]) and on SvelOBP1 [1] (setting [4]) were over 16 µM, 7.98 ± 0.08 µM and 5 to 10 µM, respectively. For `CCCCC(=O)OCC` [Ethyl pentanoate], the IC50 on SvelOBP1 [1] (mean ± SEM) was found to be 14.1 ± 0.31 µM. For the same compound, the Ki at SvelOBP1 [1] (setting [3]) turned out to be 11.7 ± 0.26 µM. In the case of `C=CC(=C)CCC=C(C)C` [7-methyl-3-methylideneocta-1,6-diene], on SvelOBP1 [1] (mean ± SEM), the IC50 was over 16 µM. `C/C(=C\CO)CCCC(C)CCCC(C)CCCC(C)C` (stereo not drawn) [(E)-3,7,11,15-tetramethylhexadec-2-en-1-ol]: the IC50 on SvelOBP1 [1] (mean ± SEM) is over 16 µM. The same measure, in the same setting: next, `CC1=CC[C@H]2C[C@@H]1C2(C)C` [(1S,5S)-2,6,6-trimethylbicyclo [3.1.1]hept-2-ene]: over 16 µM; `CC(C)C=O` [2-methylpropanal]: over 16 µM. In the case of `CC12CCC(CC1)C(C)(C)O2` [1,3,3-trimethyl-2-oxabicyclo [2.2.2]octane], on SvelOBP1 [1] (mean ± SEM), the IC50 amounted to 13.81 ± 0.13 µM. Further, the Ki on SvelOBP1 [1] (setting [3]) was determined as 11.48 ± 0.11 µM.
